Measurements: US20080009418A1, “Selective Inhibitors” (Alchemia LTD., priority 2004, published 2008)

Key:
Details in all cases: compound at 10 μM
Human melanocortin (MC5) = molecular target: T1, Human melanocortin (MC5) (Homo sapiens, UniProt P33032); assay: Radioligand binding, human melanocortin MC5 membranes, FlashPlate, [125I]-NDP-αMSH
T1 construct: purchased Perkin Elmer Biosignal
Summary of the method: (§1)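 Cloned human receptor membranes were coated onto FlashPlate wells and incubated with radioligand and compound (added from a 0.5 mM DMSO daughter plate) for 1 hour at room temperature in the dark. Scintillation counting gave percent inhibition, with DMSO defining total and reference ligand defining non-specific binding.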

Human neurokinin (NK1) = molecular target: T2, Human neurokinin (NK1) (Homo sapiens, UniProt P25103); assay: Radioligand binding, human neurokinin NK1 membranes, filtration, [125I]-Substance P
T2 construct: purchased Perkin Elmer Biosignal
Summary of the method: (§2)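 Membranes from cloned human receptors were incubated with compound and radioligand for 1 hour at room temperature. Bound ligand was collected on 0.3% PEI-soaked filters, washed with cold 50 mM Tris-HCl pH 7.4, and counted by scintillation. Percent inhibition was computed against DMSO totals and reference-ligand nonspecific wells.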

[1] = molecular target: T3, Human neuropeptide Y (NPY-Y1) (Homo sapiens, UniProt P25929); assay: Radioligand binding, human neuropeptide Y NPY-Y1 membranes, FlashPlate, [125I]-PYY
T3 construct: purchased Perkin Elmer Biosignal
T3 sequence (P25929 1-384): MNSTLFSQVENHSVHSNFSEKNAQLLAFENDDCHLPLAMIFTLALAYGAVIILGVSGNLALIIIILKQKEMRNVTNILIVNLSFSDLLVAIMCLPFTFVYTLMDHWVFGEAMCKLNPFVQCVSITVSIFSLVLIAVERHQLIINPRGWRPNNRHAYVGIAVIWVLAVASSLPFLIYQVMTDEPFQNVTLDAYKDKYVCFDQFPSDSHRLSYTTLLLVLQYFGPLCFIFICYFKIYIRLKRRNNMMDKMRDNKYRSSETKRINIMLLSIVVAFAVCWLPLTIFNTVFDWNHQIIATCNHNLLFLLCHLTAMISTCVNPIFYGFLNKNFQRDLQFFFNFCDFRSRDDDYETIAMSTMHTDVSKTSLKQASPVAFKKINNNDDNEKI
Summary of the method: as §1

Human opioid (ORL1) = molecular target: T4, Human opioid (ORL1) (Homo sapiens, UniProt P41146); assay: Radioligand binding, human opioid ORL1 membranes, FlashPlate, [125I]-Nociceptin
T4 construct: purchased Perkin Elmer Biosignal
Summary of the method: as §1

Human κ-Opioid (KOP) = molecular target: T5, Human κ-Opioid (KOP) (Homo sapiens, UniProt P41145); assay: Radioligand binding, human κ-opioid (KOP) membranes, filtration, [3H]-Diprenorphine
T5 construct: purchased Perkin Elmer Biosignal
Summary of the method: as §2

Human Melanocortin (MC4) = molecular target: T6, Human Melanocortin (MC4) (Homo sapiens, UniProt P32245); assay: Radioligand binding, human melanocortin MC4 membranes, FlashPlate, [125I]-NDP-αMSH
T6 construct: purchased Perkin Elmer Biosignal
Summary of the method: as §1

Human δ-opioid (DOP) = molecular target: T7, Human δ-opioid (DOP) (Homo sapiens, UniProt P41143); assay: Radioligand binding, human δ-opioid (DOP) membranes, FlashPlate, [3H]-Bremazocine
T7 construct: purchased Perkin Elmer Biosignal
Summary of the method: as §1

Human μ-opioid (MOP) = molecular target: T8, Human μ-opioid (MOP) (Homo sapiens, UniProt P35372); assay: Radioligand binding, human μ-opioid (MOP) membranes, FlashPlate, [3H]-Naloxone
T8 construct: purchased Perkin Elmer Biosignal
Summary of the method: as §1

[2] = molecular target: T9, Human melanin-concentrating hormone (MCH1) (Homo sapiens, UniProt Q99705); assay: Radioligand binding, human melanin-concentrating hormone MCH1 membranes, FlashPlate, [125I]-S36057
T9 construct: purchased Perkin Elmer Biosignal
Summary of the method: as §1

Human Melanocortin (MC3) = molecular target: T10, Human Melanocortin (MC3) (Homo sapiens, UniProt P41968); assay: Radioligand binding, human melanocortin MC3 membranes, FlashPlate, [125I]-NDP-αMSH
T10 construct: purchased Perkin Elmer Biosignal
Summary of the method: as §1

Mouse urotensin (mUR2) = molecular target: T11, Mouse urotensin (mUR2) (Mus musculus, UniProt Q8VIH9); assay: Radioligand binding, mouse urotensin mUR2 membranes, FlashPlate, [125I]-Urotensin II
T11 construct: purchased Perkin Elmer Biosignal
T11 sequence (Q8VIH9 1-385): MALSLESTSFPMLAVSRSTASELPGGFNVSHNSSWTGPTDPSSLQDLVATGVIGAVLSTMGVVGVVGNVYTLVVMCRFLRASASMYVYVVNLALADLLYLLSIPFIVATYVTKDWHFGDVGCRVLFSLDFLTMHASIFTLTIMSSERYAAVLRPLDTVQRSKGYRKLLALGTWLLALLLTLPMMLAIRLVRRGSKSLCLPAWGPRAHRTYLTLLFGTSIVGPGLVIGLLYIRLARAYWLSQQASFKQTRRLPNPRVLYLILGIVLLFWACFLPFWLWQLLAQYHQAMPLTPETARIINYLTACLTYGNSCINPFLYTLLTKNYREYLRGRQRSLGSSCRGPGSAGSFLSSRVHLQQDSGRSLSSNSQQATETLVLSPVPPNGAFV
Summary of the method: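 Cloned mouse urotensin (mUR2) receptor membranes from Perkin Elmer Biosignal were immobilized in FlashPlate microplates using a proprietary coating. Each well got 19.5 μl buffer, then 0.5 μl of DMSO, reference ligand, or compound. Adding 5 μl of [125I]-Urotensin II, diluted to 5× final concentration in binding buffer, started binding. Plates were sealed with TopSeal-A and incubated 1 hour at room temperature in the dark. Wells were counted for 30 seconds each on a TopCount after a 60-second delay, and percentage inhibition was calculated.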

T8 sequence (P35372 whole entry): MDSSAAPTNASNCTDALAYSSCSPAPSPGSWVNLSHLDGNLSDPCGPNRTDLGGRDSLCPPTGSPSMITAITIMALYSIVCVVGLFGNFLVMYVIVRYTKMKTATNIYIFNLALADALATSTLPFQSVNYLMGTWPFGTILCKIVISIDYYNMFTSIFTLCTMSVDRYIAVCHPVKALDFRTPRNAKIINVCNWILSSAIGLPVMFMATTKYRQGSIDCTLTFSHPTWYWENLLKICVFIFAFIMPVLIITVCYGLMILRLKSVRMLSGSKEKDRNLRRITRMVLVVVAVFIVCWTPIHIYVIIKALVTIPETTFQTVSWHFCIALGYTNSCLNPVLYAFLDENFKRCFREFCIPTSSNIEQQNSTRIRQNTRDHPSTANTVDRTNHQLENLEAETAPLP
T2 sequence (P25103 whole entry): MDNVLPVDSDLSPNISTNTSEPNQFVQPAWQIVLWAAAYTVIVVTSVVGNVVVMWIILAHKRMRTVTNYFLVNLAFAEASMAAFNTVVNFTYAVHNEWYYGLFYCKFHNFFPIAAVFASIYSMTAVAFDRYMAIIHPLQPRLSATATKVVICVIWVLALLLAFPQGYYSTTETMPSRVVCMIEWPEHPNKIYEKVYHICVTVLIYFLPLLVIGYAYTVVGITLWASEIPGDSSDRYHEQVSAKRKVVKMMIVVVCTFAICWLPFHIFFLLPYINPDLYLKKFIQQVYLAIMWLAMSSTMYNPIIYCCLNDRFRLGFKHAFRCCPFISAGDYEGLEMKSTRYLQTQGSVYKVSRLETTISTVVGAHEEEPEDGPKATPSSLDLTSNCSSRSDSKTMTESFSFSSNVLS
T4 sequence (P41146 whole entry): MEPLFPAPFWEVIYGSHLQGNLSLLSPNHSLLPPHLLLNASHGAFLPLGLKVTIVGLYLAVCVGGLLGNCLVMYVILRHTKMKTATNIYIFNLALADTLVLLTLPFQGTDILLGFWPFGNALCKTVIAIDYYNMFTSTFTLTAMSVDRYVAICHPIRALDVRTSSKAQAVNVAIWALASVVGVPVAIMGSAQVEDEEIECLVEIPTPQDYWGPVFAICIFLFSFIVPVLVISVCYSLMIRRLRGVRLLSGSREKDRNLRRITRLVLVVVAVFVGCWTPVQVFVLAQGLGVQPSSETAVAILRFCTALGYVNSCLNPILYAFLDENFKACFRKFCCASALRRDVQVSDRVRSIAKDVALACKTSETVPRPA
T10 sequence (P41968 whole entry): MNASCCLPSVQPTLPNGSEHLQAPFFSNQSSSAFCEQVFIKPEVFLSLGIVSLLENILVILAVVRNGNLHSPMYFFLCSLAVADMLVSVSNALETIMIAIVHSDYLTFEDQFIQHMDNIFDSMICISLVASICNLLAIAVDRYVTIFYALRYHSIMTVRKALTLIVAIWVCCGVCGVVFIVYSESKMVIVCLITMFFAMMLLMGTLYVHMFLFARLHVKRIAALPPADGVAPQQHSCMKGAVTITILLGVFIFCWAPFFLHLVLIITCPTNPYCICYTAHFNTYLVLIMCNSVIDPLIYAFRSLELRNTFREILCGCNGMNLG
T9 sequence (Q99705 whole entry): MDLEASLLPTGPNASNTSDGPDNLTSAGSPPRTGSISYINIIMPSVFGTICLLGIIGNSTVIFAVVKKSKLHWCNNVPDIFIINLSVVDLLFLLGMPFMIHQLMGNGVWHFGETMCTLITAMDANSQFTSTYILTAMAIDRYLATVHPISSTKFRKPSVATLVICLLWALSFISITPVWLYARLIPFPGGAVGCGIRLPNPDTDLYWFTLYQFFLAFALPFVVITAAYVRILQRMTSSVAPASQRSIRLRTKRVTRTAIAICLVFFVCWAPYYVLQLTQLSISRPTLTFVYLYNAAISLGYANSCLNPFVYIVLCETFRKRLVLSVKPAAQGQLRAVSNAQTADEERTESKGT
T6 sequence (P32245 whole entry): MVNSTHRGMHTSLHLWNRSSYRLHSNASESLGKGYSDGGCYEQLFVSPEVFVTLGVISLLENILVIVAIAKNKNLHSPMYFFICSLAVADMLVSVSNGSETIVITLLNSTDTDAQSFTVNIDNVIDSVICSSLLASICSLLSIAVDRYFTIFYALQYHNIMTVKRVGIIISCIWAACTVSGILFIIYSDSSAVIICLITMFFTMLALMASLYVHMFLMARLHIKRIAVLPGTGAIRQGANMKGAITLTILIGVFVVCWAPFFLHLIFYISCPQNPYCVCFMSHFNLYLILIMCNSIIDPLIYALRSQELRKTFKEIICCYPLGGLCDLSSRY
T7 sequence (P41143 whole entry): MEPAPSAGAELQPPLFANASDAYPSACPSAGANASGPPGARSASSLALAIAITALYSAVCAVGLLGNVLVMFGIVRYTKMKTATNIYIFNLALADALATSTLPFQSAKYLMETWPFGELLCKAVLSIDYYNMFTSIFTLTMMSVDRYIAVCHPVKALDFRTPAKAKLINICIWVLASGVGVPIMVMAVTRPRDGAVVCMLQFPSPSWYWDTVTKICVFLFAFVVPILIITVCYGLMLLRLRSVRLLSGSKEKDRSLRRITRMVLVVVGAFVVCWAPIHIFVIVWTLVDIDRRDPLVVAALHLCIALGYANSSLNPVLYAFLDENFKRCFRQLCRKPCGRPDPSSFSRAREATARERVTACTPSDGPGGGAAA
T1 sequence (P33032 whole entry): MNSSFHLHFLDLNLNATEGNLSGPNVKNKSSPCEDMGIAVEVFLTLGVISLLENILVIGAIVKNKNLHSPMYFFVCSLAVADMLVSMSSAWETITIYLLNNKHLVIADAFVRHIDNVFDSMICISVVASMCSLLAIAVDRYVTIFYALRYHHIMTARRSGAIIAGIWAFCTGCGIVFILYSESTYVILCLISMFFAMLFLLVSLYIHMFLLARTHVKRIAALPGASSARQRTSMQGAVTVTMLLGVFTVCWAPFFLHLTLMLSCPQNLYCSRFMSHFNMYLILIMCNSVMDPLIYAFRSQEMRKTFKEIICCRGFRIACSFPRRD
T5 sequence (P41145 whole entry): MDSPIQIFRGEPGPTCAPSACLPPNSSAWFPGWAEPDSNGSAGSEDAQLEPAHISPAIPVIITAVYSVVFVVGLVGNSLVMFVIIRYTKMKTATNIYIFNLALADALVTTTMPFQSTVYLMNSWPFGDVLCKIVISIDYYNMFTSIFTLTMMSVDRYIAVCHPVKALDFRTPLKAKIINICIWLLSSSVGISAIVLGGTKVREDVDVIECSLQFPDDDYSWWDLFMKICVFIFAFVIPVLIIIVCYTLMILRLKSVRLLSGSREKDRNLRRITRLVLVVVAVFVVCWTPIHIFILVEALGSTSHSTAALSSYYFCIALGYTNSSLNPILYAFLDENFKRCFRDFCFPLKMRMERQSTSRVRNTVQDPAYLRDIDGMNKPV

COC[C@H]1OC(OCCc2ccccc2)[C@H](NC(=O)CCCN)[C@@H](OCc2ccccc2)[C@@H]1O (stereo partly shown) [compound 47]
A5 radioligand binding inhibition (Human melanocortin (MC5); human melanocortin MC5 membranes): − (“−” indicates less than 50% inhibition at 10 μM)
A8 radioligand binding inhibition (Human neurokinin (NK1); human neurokinin NK1 membranes): + (“+” indicates greater than 50% inhibition at 10 μM)
A9 radioligand binding inhibition ([1]; human NPY-Y1 membranes): − (“−” indicates less than 50% inhibition at 10 μM)
A10 radioligand binding inhibition (Human opioid (ORL1); human ORL1 membranes): − (“−” indicates less than 50% inhibition at 10 μM)
A2 radioligand binding inhibition (Human κ-Opioid (KOP); human κ-opioid (KOP) membranes): − (“−” indicates less than 50% inhibition at 10 μM)
A4 radioligand binding inhibition (Human Melanocortin (MC4); human melanocortin MC4 membranes): − (“−” indicates less than 50% inhibition at 10 μM)
A1 radioligand binding inhibition (Human δ-opioid (DOP); human δ-opioid (DOP) membranes): − (“−” indicates less than 50% inhibition at 10 μM)
A7 radioligand binding inhibition (Human μ-opioid (MOP); human μ-opioid (MOP) membranes): − (“−” indicates less than 50% inhibition at 10 μM)
A6 radioligand binding inhibition ([2]; human MCH1 membranes): − (“−” indicates less than 50% inhibition at 10 μM)
A3 radioligand binding inhibition (Human Melanocortin (MC3); human melanocortin MC3 membranes): − (“−” indicates less than 50% inhibition at 10 μM)
A11 radioligand binding inhibition (Mouse urotensin (mUR2); mouse urotensin mUR2 membranes): − (“−” indicates less than 50% inhibition at 10 μM)

NCC1CCC(C(=O)NC2O[C@H](CO)[C@@H](O)[C@H](OCc3ccc(Cl)cc3)[C@H]2NC(=O)c2ccccc2)CC1 (stereo partly shown) [compound 361]
A5: inhibition of radioligand binding, human melanocortin (MC5) (Human melanocortin (MC5); [125I]-NDP-αMSH): − (“−” indicates less than 50% inhibition at 10 μM)
A8: inhibition of radioligand binding, human neurokinin (NK1) (Human neurokinin (NK1); [125I]-Substance P): − (“−” indicates less than 50% inhibition at 10 μM)
A9: inhibition of radioligand binding, human neuropeptide Y (NPY-Y1) ([1]; [125I]-PYY): − (“−” indicates less than 50% inhibition at 10 μM)
A10: inhibition of radioligand binding, human opioid (ORL1) (Human opioid (ORL1); [125I]-Nociceptin): − (“−” indicates less than 50% inhibition at 10 μM)
A2: inhibition of radioligand binding, human κ-opioid (KOP) (Human κ-Opioid (KOP); [3H]-Diprenorphine): − (“−” indicates less than 50% inhibition at 10 μM)
A4: inhibition of radioligand binding, human melanocortin (MC4) (Human Melanocortin (MC4); [125I]-NDP-αMSH): + (“+” indicates greater than 50% inhibition at 10 μM)
A1: inhibition of radioligand binding, human δ-opioid (DOP) (Human δ-opioid (DOP); [3H]-Bremazocine): − (“−” indicates less than 50% inhibition at 10 μM)
A7: inhibition of radioligand binding, human μ-opioid (MOP) (Human μ-opioid (MOP); [3H]-Naloxone): − (“−” indicates less than 50% inhibition at 10 μM)
A6: inhibition of radioligand binding, human melanin-concentrating hormone (MCH1) ([2]; [125I]-S36057): − (“−” indicates less than 50% inhibition at 10 μM)
A3: inhibition of radioligand binding, human melanocortin (MC3) (Human Melanocortin (MC3); [125I]-NDP-αMSH): − (“−” indicates less than 50% inhibition at 10 μM)
A11: inhibition of radioligand binding, mouse urotensin (mUR2) (Mouse urotensin (mUR2); [125I]-Urotensin II): − (“−” indicates less than 50% inhibition at 10 μM)

N=C(N)NCC(=O)NC1C(OCc2ccc(Cl)cc2)OC(COCc2ccc3ccccc3c2)C(O)C1OCc1ccc2ccccc2c1 (stereo not shown) [compound 420]
A5: inhibition of radioligand binding (Human melanocortin (MC5); [125I]-NDP-αMSH, human MC5 membranes): + (“+” indicates greater than 50% inhibition at 10 μM)
A8: inhibition of radioligand binding (Human neurokinin (NK1); [125I]-Substance P, human NK1 membranes): + (“+” indicates greater than 50% inhibition at 10 μM)
A9: inhibition of radioligand binding ([1]; [125I]-PYY, human NPY-Y1 membranes): − (“−” indicates less than 50% inhibition at 10 μM)
A10: inhibition of radioligand binding (Human opioid (ORL1); [125I]-Nociceptin, human ORL1 membranes): + (“+” indicates greater than 50% inhibition at 10 μM)
A2: inhibition of radioligand binding (Human κ-Opioid (KOP); [3H]-Diprenorphine, human KOP membranes): − (“−” indicates less than 50% inhibition at 10 μM)
A4: inhibition of radioligand binding (Human Melanocortin (MC4); [125I]-NDP-αMSH, human MC4 membranes): + (“+” indicates greater than 50% inhibition at 10 μM)
A1: inhibition of radioligand binding (Human δ-opioid (DOP); [3H]-Bremazocine, human DOP membranes): − (“−” indicates less than 50% inhibition at 10 μM)
A7: inhibition of radioligand binding (Human μ-opioid (MOP); [3H]-Naloxone, human MOP membranes): − (“−” indicates less than 50% inhibition at 10 μM)
A6: inhibition of radioligand binding ([2]; [125I]-S36057, human MCH1 membranes): − (“−” indicates less than 50% inhibition at 10 μM)
A3: inhibition of radioligand binding (Human Melanocortin (MC3); [125I]-NDP-αMSH, human MC3 membranes): + (“+” indicates greater than 50% inhibition at 10 μM)
A11: inhibition of radioligand binding (Mouse urotensin (mUR2); [125I]-Urotensin II, mouse mUR2 membranes): − (“−” indicates less than 50% inhibition at 10 μM)

NCCCC(=O)NC1C(OCc2ccccc2)OC(COCc2ccc(Cl)cc2)C(O)C1OCc1ccc2ccccc2c1 (stereo not shown) [compound 377]
A5: inhibition of radioligand binding, human melanocortin (MC5) (Human melanocortin (MC5); [125I]-NDP-αMSH): + (“+” indicates greater than 50% inhibition at 10 μM)
A8: inhibition of radioligand binding, human neurokinin (NK1) (Human neurokinin (NK1); [125I]-Substance P): + (“+” indicates greater than 50% inhibition at 10 μM)
A9: inhibition of radioligand binding, human neuropeptide Y (NPY-Y1) ([1]; [125I]-PYY): − (“−” indicates less than 50% inhibition at 10 μM)
A10: inhibition of radioligand binding, human opioid (ORL1) (Human opioid (ORL1); [125I]-Nociceptin): − (“−” indicates less than 50% inhibition at 10 μM)
A2: inhibition of radioligand binding, human κ-opioid (KOP) (Human κ-Opioid (KOP); [3H]-Diprenorphine): − (“−” indicates less than 50% inhibition at 10 μM)
A4: inhibition of radioligand binding, human melanocortin (MC4) (Human Melanocortin (MC4); [125I]-NDP-αMSH): + (“+” indicates greater than 50% inhibition at 10 μM)
A1: inhibition of radioligand binding, human δ-opioid (DOP) (Human δ-opioid (DOP); [3H]-Bremazocine): − (“−” indicates less than 50% inhibition at 10 μM)
A7: inhibition of radioligand binding, human μ-opioid (MOP) (Human μ-opioid (MOP); [3H]-Naloxone): − (“−” indicates less than 50% inhibition at 10 μM)
A6: inhibition of radioligand binding, human melanin-concentrating hormone (MCH1) ([2]; [125I]-S36057): − (“−” indicates less than 50% inhibition at 10 μM)
A3: inhibition of radioligand binding, human melanocortin (MC3) (Human Melanocortin (MC3); [125I]-NDP-αMSH): + (“+” indicates greater than 50% inhibition at 10 μM)
A11: inhibition of radioligand binding, mouse urotensin (mUR2) (Mouse urotensin (mUR2); [125I]-Urotensin II): − (“−” indicates less than 50% inhibition at 10 μM)

CO[C@H]1[C@H](O)[C@@H](COCc2ccc(Cl)cc2)OC(OCc2ccccc2)[C@@H]1NC(=O)CCCNC(=N)N (stereo partly shown) [compound 93]
A5 radioligand binding, percentage inhibition (Human melanocortin (MC5); [125I]-NDP-αMSH): + (“+” indicates greater than 50% inhibition at 10 μM)
A8 radioligand binding, percentage inhibition (Human neurokinin (NK1); [125I]-Substance P): + (“+” indicates greater than 50% inhibition at 10 μM)
A9 radioligand binding, percentage inhibition ([1]; [125I]-PYY): − (“−” indicates less than 50% inhibition at 10 μM)
A10 radioligand binding, percentage inhibition (Human opioid (ORL1); [125I]-Nociceptin): − (“−” indicates less than 50% inhibition at 10 μM)
A2 radioligand binding, percentage inhibition (Human κ-Opioid (KOP); [3H]-Diprenorphine): − (“−” indicates less than 50% inhibition at 10 μM)
A4 radioligand binding, percentage inhibition (Human Melanocortin (MC4); [125I]-NDP-αMSH): − (“−” indicates less than 50% inhibition at 10 μM)
A1 radioligand binding, percentage inhibition (Human δ-opioid (DOP); [3H]-Bremazocine): − (“−” indicates less than 50% inhibition at 10 μM)
A7 radioligand binding, percentage inhibition (Human μ-opioid (MOP); [3H]-Naloxone): + (“+” indicates greater than 50% inhibition at 10 μM)
A6 radioligand binding, percentage inhibition ([2]; [125I]-S36057): − (“−” indicates less than 50% inhibition at 10 μM)
A3 radioligand binding, percentage inhibition (Human Melanocortin (MC3); [125I]-NDP-αMSH): − (“−” indicates less than 50% inhibition at 10 μM)
A11 radioligand binding, percentage inhibition (Mouse urotensin (mUR2); [125I]-Urotensin II): − (“−” indicates less than 50% inhibition at 10 μM)
